Experimental data taken from publication PMC9181188 (International Journal of Molecular Sciences, 2022).
In brackets after ≈: the same amount, converted by molar mass. Where two headings read alike, the source gives them in different places.

Columns and labels:
PC3 cells = test: MTT assay, PC3; format: cell-based, human; settings: for IC50: human metastatic prostate cancer, 72 h, MTT, mean ± SD; for SI PC3: SI = IC50 for normal cell line (HaCaT)/IC50 cancer cell line
S. aureus ATCC 6538 = test: MIC, twofold microdilution, standard strain; format: cell-based; settings: Staphylococcus aureus, ATCC6538; 18 h of treatment; read-out: MIC S. aureus ATCC 6538
[1] = system: M. tuberculosis Spec. 192 (Sensitive to Tuberculostatics); test: MABA (microplate Alamar blue assay) MIC; format: cell-based; settings: Mycobacterium tuberculosis, 336 h; 2 weeks of treatment; read-out: MIC M. tuberculosis Spec. 192 (Sensitive to Tuberculostatics)
S. aureus ATCC 29213 = test: MIC, twofold microdilution, standard strain; format: cell-based; settings: Staphylococcus aureus, ATCC29213; 18 h of treatment; read-out: MIC S. aureus ATCC 29213
[2] = system: S. epidermidis ATCC 12228; test: MIC, twofold microdilution, standard strain; format: cell-based; settings: Staphylococcus epidermidis, ATCC12228; 18 h of treatment; read-out: MIC S. epidermidis ATCC 12228
E. coli ATCC 25922 = test: MIC, twofold microdilution, standard strain; format: cell-based, Escherichia coli; settings: 18 h of treatment; for MIC: Escherichia coli, ATCC25922, read-out: MIC E. coli ATCC 25922
[3] = system: S. epidermidis ATCC 35984; test: MIC, twofold microdilution, standard strain; format: cell-based; settings: Staphylococcus epidermidis, ATCC35984; 18 h of treatment; read-out: MIC S. epidermidis ATCC 35984
HaCaT cells = test: MTT assay, HaCaT normal cells; format: cell-based; settings: human immortal keratinocyte cell line, 72 h, mean ± SD
[4] = system: S. epidermidis T 5501 851/19; test: MIC, clinical S. epidermidis strain; format: cell-based; settings: Staphylococcus epidermidis, T5501851/19, read-out: MIC T 5501 851/19, quinolone-susceptible, 18 h of treatment
[5] = system: S. epidermidis KR 4243 829/19; test: MIC, clinical S. epidermidis strain; format: cell-based; settings: Staphylococcus epidermidis, KR4243829/19, quinolone-susceptible, 18 h of treatment
P. aeruginosa ATCC 27853 = test: MIC, twofold microdilution, standard strain; format: cell-based; settings: Pseudomonas aeruginosa, ATCC27853; 18 h of treatment; read-out: MIC P. aeruginosa ATCC 27853
[6] = system: standard staphylococci (S. aureus, S. epidermidis); test: MIC, standard Gram-positive strains as a group; format: cell-based; settings: Staphylococcus aureus; range over standard Gram-positive strains; read-out: MIC against standard staphylococci
S. aureus NCTC 4163 = test: MIC, twofold microdilution, standard strain; format: cell-based; settings: Staphylococcus aureus, NCTC4163; 18 h of treatment; read-out: MIC S. aureus NCTC 4163
[7] = system: S. epidermidis KR 4313 834/19; test: MIC, clinical S. epidermidis strain; format: cell-based; settings: Staphylococcus epidermidis, KR4313834/19, quinolone-susceptible, 18 h of treatment
M. tuberculosis H37Rv = test: MABA (microplate Alamar blue assay) MIC; format: cell-based; settings: Mycobacterium tuberculosis, 336 h, 2 weeks of treatment, read-out: MIC M. tuberculosis H37Rv
S. aureus ATCC 25923 = test: MIC, twofold microdilution, standard strain; format: cell-based; settings: Staphylococcus aureus, ATCC25923; 18 h of treatment; read-out: MIC S. aureus ATCC 25923
[8] = system: S. epidermidis T 5253 845/19; test: MIC, clinical S. epidermidis strain; format: cell-based; settings: Staphylococcus epidermidis, T5253845/19, quinolone-resistant, 18 h of treatment
SW620 cells = test: MTT assay, SW620; format: cell-based, human; settings: for IC50: human metastatic colon cancer, 72 h, MTT, mean ± SD; for SI SW620: SI = IC50 for normal cell line (HaCaT)/IC50 cancer cell line
[9] = system: S. epidermidis KR 4047 825/19; test: MIC, clinical S. epidermidis strain; format: cell-based; settings: Staphylococcus epidermidis, KR4047825/19, quinolone-resistant, 18 h of treatment
[10] = system: S. epidermidis KR 4358/2 840/19; test: MIC, clinical S. epidermidis strain; format: cell-based; settings: Staphylococcus epidermidis, KR4358/2840/19; clinical S. epidermidis, quinolone-susceptible, 18 h of treatment; read-out: MIC KR 4358/2 840/19
SW480 cells = test: MTT assay, SW480; format: cell-based, human; settings: for IC50: Homo sapiens, SW480, 72 h, human primary colon cancer, 72 h, MTT, mean ± SD; for SI SW480: SI = IC50 for normal cell line (HaCaT)/IC50 cancer cell line
[11] = system: quinolone-susceptible clinical coagulase-negative staphylococci; test: MIC, quinolone-susceptible clinical isolates as a group; format: cell-based; settings: Staphylococcus epidermidis, five quinolone-susceptible isolates, read-out: MIC against quinolone-susceptible clinical isolates
[12] = system: S. epidermidis T 5399 848/19; test: MIC, clinical S. epidermidis strain; format: cell-based; settings: Staphylococcus epidermidis, T5399848/19, quinolone-susceptible, 18 h of treatment
[13] = molecular target: T1, S. aureus topoisomerase IV (Staphylococcus aureus, UniProt P0C1S7+P0C1U9); test: S. aureus topoisomerase IV decatenation assay; format: biochemical
T1 construct: purchased Inspiralis
T1 sequence (P0C1U9 whole entry): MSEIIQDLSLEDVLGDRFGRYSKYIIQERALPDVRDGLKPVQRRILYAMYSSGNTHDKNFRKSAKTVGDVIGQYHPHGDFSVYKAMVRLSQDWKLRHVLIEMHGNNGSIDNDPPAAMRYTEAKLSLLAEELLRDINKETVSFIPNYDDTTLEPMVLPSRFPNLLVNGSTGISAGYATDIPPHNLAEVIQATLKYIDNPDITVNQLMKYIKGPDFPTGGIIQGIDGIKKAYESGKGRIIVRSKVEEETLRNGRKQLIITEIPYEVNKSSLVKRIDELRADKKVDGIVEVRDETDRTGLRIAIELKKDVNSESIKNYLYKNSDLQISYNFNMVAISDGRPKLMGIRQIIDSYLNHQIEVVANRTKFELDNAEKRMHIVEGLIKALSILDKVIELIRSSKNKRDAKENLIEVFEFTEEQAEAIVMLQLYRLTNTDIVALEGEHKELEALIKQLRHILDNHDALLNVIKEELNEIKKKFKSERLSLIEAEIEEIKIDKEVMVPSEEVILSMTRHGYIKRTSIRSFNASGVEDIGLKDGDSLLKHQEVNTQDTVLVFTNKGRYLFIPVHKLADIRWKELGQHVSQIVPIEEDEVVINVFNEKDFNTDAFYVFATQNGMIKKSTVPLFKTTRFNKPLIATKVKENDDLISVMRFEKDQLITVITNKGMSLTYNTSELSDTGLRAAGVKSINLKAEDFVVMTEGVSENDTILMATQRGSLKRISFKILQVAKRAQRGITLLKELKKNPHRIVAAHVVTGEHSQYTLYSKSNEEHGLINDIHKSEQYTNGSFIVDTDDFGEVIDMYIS
T1 sequence (P0C1S7 whole entry): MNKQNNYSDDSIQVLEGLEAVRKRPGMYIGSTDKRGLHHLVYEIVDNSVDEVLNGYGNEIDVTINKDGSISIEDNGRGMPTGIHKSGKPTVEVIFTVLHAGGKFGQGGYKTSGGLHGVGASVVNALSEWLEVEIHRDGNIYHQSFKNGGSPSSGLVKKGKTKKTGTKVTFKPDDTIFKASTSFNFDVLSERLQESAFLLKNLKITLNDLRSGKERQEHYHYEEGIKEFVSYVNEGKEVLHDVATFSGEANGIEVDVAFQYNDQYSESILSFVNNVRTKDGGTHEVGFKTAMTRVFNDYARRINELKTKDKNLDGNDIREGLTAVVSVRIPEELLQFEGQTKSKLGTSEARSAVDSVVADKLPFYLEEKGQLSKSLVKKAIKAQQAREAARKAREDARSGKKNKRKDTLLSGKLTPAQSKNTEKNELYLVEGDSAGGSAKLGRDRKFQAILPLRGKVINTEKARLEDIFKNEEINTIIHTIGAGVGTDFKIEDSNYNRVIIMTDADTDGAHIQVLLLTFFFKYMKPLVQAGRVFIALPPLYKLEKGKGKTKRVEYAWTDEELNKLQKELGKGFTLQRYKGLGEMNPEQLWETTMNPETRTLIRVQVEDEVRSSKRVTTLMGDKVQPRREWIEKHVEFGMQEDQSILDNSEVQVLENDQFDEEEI
Experimental: The assay was performed using S. aureus topoisomerase IV […] kit (Inspiralis). Kinetoplast DNA (kDNA) was the substrate for topoisomerase IV.

S. aureus DNA gyrase = S. aureus DNA gyrase (Staphylococcus aureus, UniProt P0A0K8+P20831); test: biochemical
Sequence of S. aureus DNA gyrase (P20831 whole entry): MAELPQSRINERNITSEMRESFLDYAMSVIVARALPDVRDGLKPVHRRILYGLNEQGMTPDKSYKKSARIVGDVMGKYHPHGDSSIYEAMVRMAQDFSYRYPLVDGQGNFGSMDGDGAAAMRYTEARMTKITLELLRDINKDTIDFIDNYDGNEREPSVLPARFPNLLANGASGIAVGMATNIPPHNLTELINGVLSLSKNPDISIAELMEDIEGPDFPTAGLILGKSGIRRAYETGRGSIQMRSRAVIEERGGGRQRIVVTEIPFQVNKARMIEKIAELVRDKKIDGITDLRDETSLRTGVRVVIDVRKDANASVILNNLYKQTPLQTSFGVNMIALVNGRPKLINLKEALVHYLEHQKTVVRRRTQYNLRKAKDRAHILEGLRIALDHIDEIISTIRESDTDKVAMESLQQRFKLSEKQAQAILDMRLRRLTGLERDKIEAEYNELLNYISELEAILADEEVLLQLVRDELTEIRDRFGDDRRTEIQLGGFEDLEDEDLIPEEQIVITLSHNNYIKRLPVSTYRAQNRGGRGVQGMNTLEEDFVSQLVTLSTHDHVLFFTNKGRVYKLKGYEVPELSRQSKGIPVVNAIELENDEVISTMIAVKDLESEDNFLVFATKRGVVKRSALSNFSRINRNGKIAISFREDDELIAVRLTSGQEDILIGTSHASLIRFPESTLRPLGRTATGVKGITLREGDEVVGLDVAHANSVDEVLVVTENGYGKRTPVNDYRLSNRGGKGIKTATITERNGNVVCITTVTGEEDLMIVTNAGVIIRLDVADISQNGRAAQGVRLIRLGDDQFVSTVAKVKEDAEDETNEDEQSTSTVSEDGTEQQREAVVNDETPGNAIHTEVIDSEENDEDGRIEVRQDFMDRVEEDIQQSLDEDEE
Sequence of S. aureus DNA gyrase (P0A0K8 whole entry): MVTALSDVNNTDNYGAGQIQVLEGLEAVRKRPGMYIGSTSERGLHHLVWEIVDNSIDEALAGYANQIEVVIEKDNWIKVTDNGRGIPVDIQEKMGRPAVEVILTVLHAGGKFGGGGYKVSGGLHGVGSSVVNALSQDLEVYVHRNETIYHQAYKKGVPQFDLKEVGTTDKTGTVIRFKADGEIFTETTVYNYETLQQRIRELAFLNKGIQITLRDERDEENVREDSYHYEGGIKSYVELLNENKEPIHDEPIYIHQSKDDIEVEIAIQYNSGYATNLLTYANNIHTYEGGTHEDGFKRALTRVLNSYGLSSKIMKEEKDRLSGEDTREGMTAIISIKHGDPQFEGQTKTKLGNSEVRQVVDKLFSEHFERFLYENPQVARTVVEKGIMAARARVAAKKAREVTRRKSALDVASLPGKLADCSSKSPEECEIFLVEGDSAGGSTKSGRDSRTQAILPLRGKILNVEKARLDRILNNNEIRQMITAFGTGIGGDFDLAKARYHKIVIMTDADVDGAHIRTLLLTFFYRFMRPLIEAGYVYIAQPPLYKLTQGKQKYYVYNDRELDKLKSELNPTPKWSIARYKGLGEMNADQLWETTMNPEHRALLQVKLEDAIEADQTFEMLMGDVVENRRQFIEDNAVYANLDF

| Compound | IC50 (PC3 cells; Homo sapiens, PC-3, 72 h) | SI PC3 (PC3 cells) | MIC (S. aureus ATCC 6538) | MIC [1] | MIC (S. aureus ATCC 29213) | MIC [2] | MIC (E. coli ATCC 25922) | MIC [3] | IC50 (HaCaT cells) | MIC [4] | MIC [5] | MIC (P. aeruginosa ATCC 27853) | MIC [6] | MIC (S. aureus NCTC 4163) | MIC [7] | MIC (M. tuberculosis H37Rv) | MIC (S. aureus ATCC 25923) | MIC [8] | IC50 (SW620 cells; Homo sapiens, SW-620, 72 h) | SI SW620 (SW620 cells) | also measured |
| --- | --- | --- | --- | --- | --- | --- | --- | --- | --- | --- | --- | --- | --- | --- | --- | --- | --- | --- | --- | --- | --- |
| CCCCC/C=C\C/C=C\C/C=C\C/C=C\CCCC(=O)N1CCCC2CN(c3c(F)cc4c(=O)c(C(=O)O)cn(C5CC5)c4c3OC)CC21 (stereo not drawn) [Compound 13m, 1-Cyclopropyl-6-fluoro-7-{1-(5Z,8Z,11Z,14Z)-icosa-5,8,11,14-tetraenoyl-octahydro-pyrrolo[3,4-b]pyridin-6-yl}-8-methoxy-4-oxo-1,4-dihydro-quinoline-3-carboxylic acid] | 28.3 ± 2.8 µM | 3.3 | 16 µg/mL (≈ 23.3 µM) | 4 µg/mL (≈ 5.81 µM) | 16 µg/mL (≈ 23.3 µM) | 16 µg/mL (≈ 23.3 µM) | 16 µg/mL (≈ 23.3 µM) | 16 µg/mL (≈ 23.3 µM) | 93.3 ± 2.8 µM | 8 µg/mL (≈ 11.6 µM) | 4 µg/mL (≈ 5.81 µM) | > 512 µg/mL | 8 to 32 µg/mL (≈ 11.6 to 46.5 µM) | 16 µg/mL (≈ 23.3 µM) | 8 µg/mL (≈ 11.6 µM) | 4 µg/mL (≈ 5.81 µM) | 16 µg/mL (≈ 23.3 µM) | 512 µg/mL (≈ 744 µM) | 39.4 ± 4.1 µM | 2.4 | MIC E. coli ATCC 25922 (E. coli ATCC 25922): 2 to 16 µg/mL; MIC [9]: 256 µg/mL (≈ 372 µM); MIC [10]: 8 µg/mL (≈ 11.6 µM); IC50 (SW480 cells): 32.3 ± 4.1 µM; SI SW480 (SW480 cells): 2.9; MIC [11]: 2 to 8 µg/mL (≈ 2.91 to 11.6 µM); MIC [12]: 4 µg/mL (≈ 5.81 µM) |
| C=CCCCCC(=O)N1CCCC2CN(c3c(F)cc4c(=O)c(C(=O)O)cn(C5CC5)c4c3OC)CC21 (stereo not drawn) [Compound 10m, 1-Cyclopropyl-6-fluoro-7-(1-hept-6-enoyl-octahydro-pyrrolo[3,4-b]pyridin-6-yl)-8-methoxy-4-oxo-1,4-dihydro-quinoline-3-carboxylic acid] | < 5 µM | 19.0 | 2 µg/mL (≈ 3.91 µM) | 32 µg/mL (≈ 62.5 µM) | 2 µg/mL (≈ 3.91 µM) | 4 µg/mL (≈ 7.82 µM) | 32 µg/mL (≈ 62.5 µM) | 2 µg/mL (≈ 3.91 µM) | 87.6 ± 4.5 µM | 4 µg/mL (≈ 7.82 µM) | 2 µg/mL (≈ 3.91 µM) | > 512 µg/mL | 2 to 4 µg/mL (≈ 3.91 to 7.82 µM) | 2 µg/mL (≈ 3.91 µM) | 2 µg/mL (≈ 3.91 µM) | 32 µg/mL (≈ 62.5 µM) | 2 µg/mL (≈ 3.91 µM) | 16 µg/mL (≈ 31.3 µM) | 6.2 ± 1.1 µM | 14.1 | IC50 (PC3 cells): 4.6 ± 1.1 µM; MIC [9]: 16 µg/mL (≈ 31.3 µM); MIC [10]: 4 µg/mL (≈ 7.82 µM); IC50 (SW480 cells): 5.8 ± 0.8 µM; SI SW480 (SW480 cells): 15.1; MIC [11]: 2 to 8 µg/mL (≈ 3.91 to 15.6 µM); MIC [12]: 2 µg/mL (≈ 3.91 µM) |
| C/C=C/C=C/C(=O)N1CCCC2CN(c3c(F)cc4c(=O)c(C(=O)O)cn(C5CC5)c4c3OC)CC21 (stereo not drawn) [Compound 2m, 1-Cyclopropyl-6-fluoro-7-{1-(2E,4E)-hexa-2,4-dienoyl-octahydro-pyrrolo[3,4-b]pyridin-6-yl}-8-methoxy-4-oxo-1,4-dihydro-quinoline-3-carboxylic acid] | < 5 µM | 36.7 | 1 µg/mL (≈ 2.02 µM) | 32 µg/mL (≈ 64.6 µM) | 1 µg/mL (≈ 2.02 µM) | 2 µg/mL (≈ 4.04 µM) | 64 µg/mL (≈ 129 µM) | 1 µg/mL (≈ 2.02 µM) | 99.1 ± 1.8 µM | 2 µg/mL (≈ 4.04 µM) | 1 µg/mL (≈ 2.02 µM) | > 512 µg/mL | 0.5 to 2 µg/mL (≈ 1.01 to 4.04 µM) | 1 µg/mL (≈ 2.02 µM) | 1 µg/mL (≈ 2.02 µM) | 32 µg/mL (≈ 64.6 µM) | 1 µg/mL (≈ 2.02 µM) | 32 µg/mL (≈ 64.6 µM) | < 5 µM | 25.4 | IC50 (PC3 cells): 2.7 ± 1.1 µM; IC50 [13]: > 129 µM; IC50 (S. aureus DNA gyrase): > 129 µM; IC50 (SW620 cells): 3.9 ± 1.1 µM; MIC [9]: 32 µg/mL (≈ 64.6 µM); MIC [10]: 1 µg/mL (≈ 2.02 µM); IC50 (SW480 cells): 6.3 ± 1.2 µM; SI SW480 (SW480 cells): 15.7; MIC ([11]; 18 h): 0.5 to 1 µg/mL (≈ 1.01 to 2.02 µM); MIC [12]: 0.5 µg/mL (≈ 1.01 µM) |
